Measurements: US20170119833A1, “ACANTHOSPERMUM HISPIDUM COMPOSITION FOR THE TREATMENT OF CANCER AND METHODS FOR ITS MANUFACTURE” (priority 2014, published 2017)

Columns and labels:
Assay type in all cases: in vivo, Swiss albino mice
DAL [1] = experiment: Dead cell count of DAL ascitic fluid in mice
Procedure: (§1) The extracts used were in the form of suspension with tween-20 (one part by volume) and distilled water (two parts by volume). The prepared extracts were also used for further studies. Animals used for studies were Swiss albino mice. Six experiments were carried for each plant extract.
(§2) After development of tumor the drug treatment was given on the 9th day and the 18th day post tumor inoculation. The peritoneal fluid was collected once on the 11th day and 20th day from each mouse and the following parameters were examined in antitumor assessment:
Ascitic fluid for cell cytology, specifically dead cell count and histopathology.
(§3) Statistical analysis: The data for anti-tumor activity was analyzed by one-way ANOVA followed by Dunnett's ‘t’ test. P<0.05 was considered statistically significant.

DAL [2] = experiment: Hematological parameters in DAL-bearing mice; conditions: 5-FU 12.5 mg/kg p.o., extracts 300 mg/kg p.o.
Procedure: The extracts used were in the form of suspension with tween-20 (one part by volume) and distilled water (two parts by volume). The prepared extracts were also used for further studies. Animals used for studies were Swiss albino mice. Six experiments were carried for each plant extract. After development of tumor the drug treatment was given on the 9th day and the 18th day post tumor inoculation. […] Hematological parameters, such as WBC, RBC, Hb, differential Leucocyte count; Statistical analysis: The data for anti-tumor activity was analyzed by one-way ANOVA followed by Dunnett's ‘t’ test. P<0.05 was considered statistically significant.

DAL [3] = experiment: Mean survival time (MST) in DAL-bearing mice
Procedure: as §1, §2
Mean Survival time (MST);
as §3

DAL [4] = experiment: Body weight (tumor volume) of DAL-bearing mice; conditions: for body weight: mean of six experiments
Procedure: as §1, §2
Body weight (tumor volume). All parameters were examined with standard procedures.

## O=c1[nH]cc(F)c(=O)[nH]1 [5-FU, 5-Fluorouracil]
DAL [1]; 11th day
  % of dead cells: 35%
  % protection against tumor: 52%
DAL [1]; 20th day
  % of dead cells: 51%
  % protection against tumor: 54.54%
DAL [2]; Day 11
  Hb g/dl ± SEM: 5.8 ± 0.98 g/dL
  Lymphocytes ± SEM: 48 ± 0.41
  Monocytes: 2
  Neutrophils ± SEM: 56 ± 0.82
  RBC × 10^6 ± SEM: 2.20 ± 0.08 × 10^6
DAL [2]; Day 20
  Hb g/dl ± SEM: 7.2 ± 0.04 g/dL
  Lymphocytes ± SEM: 54.98 ± 0.81
  Monocytes: 2
  Neutrophils ± SEM: 34.98 ± 0.03
  RBC × 10^6 ± SEM: 2.61 ± 0.03 × 10^6
  WBC ± SEM: 11,600 ± 2.03
DAL [3]; DAL-bearing mice
  No. of Days Alive ± SEM: 26 ± 0.24 days
DAL [3]; tumor control (DAL) = 100
  Mean Survival time (%): 110%
DAL [4]; 20th day post-tumor inoculation
  % increase in body weight on 20th day post-tumor inoculation: 32.08%
DAL [4]; day 9 post tumor inoculation
  body weight: 22.33 grams
DAL [4]; day 10 post tumor inoculation
  body weight: 22.33 grams
DAL [4]; day 11 post tumor inoculation
  body weight: 22.66 grams
DAL [4]; day 12 post tumor inoculation
  body weight: 23 grams
DAL [4]; day 13 post tumor inoculation
  body weight: 26.33 grams
DAL [4]; day 14 post tumor inoculation
  body weight: 27 grams
DAL [4]; day 15 post tumor inoculation
  body weight: 28.66 grams
DAL [4]; day 18 post tumor inoculation
  body weight: 30 grams
DAL [4]; day 20 post tumor inoculation
  body weight: 30 grams
DAL [4]; day 21 post tumor inoculation
  body weight: 30 grams
DAL [4]; day 24 post tumor inoculation
  body weight: 30 grams
